For 15 compounds, IC50 and FPT inhibition results are on record in US6277854A, “Tricyclic antitumor farnesyl protein transferase inhibitors” (Schering Corporation, priority 1999, dated 2001).

Molecules are shown by their SMILES.

One test relates to Ras processing (val12-Ha-Ras-CVLS) in COS monkey kidney cells. Put plainly: Cell-based assay: inhibition of Ras processing in COS cells (transient expression of val12-Ha-Ras-CVLS). As to conditions: Primates. The procedure:
Following electroporation, cells were plated into 6-well tissue culture dishes containing 1.5 ml of Dulbecco's-modified Eagle's media (GIBCO, Inc.) supplemented with 10% fetal calf serum and the appropriate farnesyl protein transferase inhibitors. After 24 hours, media was removed and fresh media containing the appropriate drugs was re-added.
48 hours after electroporation cells were examined under the microscope to monitor disordered cell growth induced by transforming Ras. Cells expressing transforming Ras become more rounded and refractile and overgrow the monolayer, reminiscent of the transformed phenotype. Cells were then photographed, washed twice with 1 ml of cold phosphate-buffered saline (PBS) and removed from the dish by scraping with a rubber policeman into 1 ml of a buffer containing 25 mM Tris, pH 8.0; 1 mM ethylenediamine tetraacetic acid; 1 mM phenylmethylsulfonyl fluoride; […]; and 0.1 mM pepstatin. Cells were lysed by homogenization and cell debris was removed by centrifugation at 2000×g for 10 min.
Cellular protein was precipitated by addition of ice-cold trichloroacetic acid and redissolved in […] of SDS-electrophoresis sample buffer. […] Proteins resolved on the gels were electroblotted onto nitrocellulose membranes for immunodetection.
After washing, membranes were incubated for one hour at room temperature with a 1:5000 dilution of secondary antibody, rabbit anti-rat IgG conjugated to horseradish peroxidase, in PBS containing 1% fetal calf serum. The presence of processed and unprocessed Ras-CVLS or Ras-CVLL was detected using a colorimetric peroxidase reagent (4-chloro-1-naphthol) as described by the manufacturer (Bio-Rad).
Regarding `O=C(O)CCCCCC(=O)N1CCC([C@H]2c3ncc(Br)cc3CCc3cc(Cl)cc(Br)c32)CC1` [Example 58, (+)-SODIUM 4-(3,10-DIBROMO-8-CHLORO-6,11-DIHYDRO-5H-BENZO[5,6]CYCLO-HEPTA[1,2-b]PYRIDIN-11 (R)-YL)-OMEGA-OXO-1-PIPERIDININE HEPTANOATE], the IC50 was 300 nM.
Still for that read-out and setting: as for `NC(=O)CCCCCC(=O)N1CCC([C@H]2c3ncc(Br)cc3CCc3cc(Cl)cc(Br)c32)CC1` [Example 59, (+)-4-(3,10-DIBROMO-8-CHLORO-6,11-DIHYDRO-5H-BENZO[5,6]CYCLO-HEPTA[1,2-b]PYRIDIN-11(R)-YL)-OMEGA-OXO-1-PIPERIDININE HEPTANAMIDE], the figure is 15 nM; as for `CN(C)CCCC(=O)N1CCC(C2c3ncc(Br)cc3CCc3cc(Cl)cc(Cl)c32)CC1` (single isomer, unassigned) [Example 6], 35 nM.

A further test concerns the target farnesyl protein transferase. The test can be described thus: In vitro enzyme assay: inhibition of farnesyl protein transferase (FPT), [3H]farnesyl transfer to Ras-CVLS. It is filed as biochemical, rat (brain); human (expressed in E. coli).
Conditions: not given
The text has this:
1. In vitro enzyme assays: Inhibition of famesyl protein transferase and geranylgeranyl protein transferase.
Farnesyl protein transferase (FPT) was partially purified from rat brain by ammonium sulfate fractionation followed by Q-Sepharose (Pharmacia, Inc.) anion exchange chromatography essentially as described by Yokoyama et al (Yokoyama, K., et al., (1991), A protein geranylgeranyltransferase from bovine brain: Implications for protein prenylation specificity, Proc. Natl. Acad. Sci USA 88: 5302-5306, the disclosure of which is incorporated herein by reference thereto). Human famesyl protein transferase was also expressed in E. coli, using cDNA clones encoding both the a and b subunits. The methods used were similar to those published (Omer, C. et al., (1993), Characterization of recombinant human famesyl protein transferase: Cloning, expression, farnesyl diphosphate binding, and functional homology with yeast prenyl-protein transferases, Biochemistry 32:5167-5176). Human famesyl protein transferase was partially-purified from the soluble protein fraction of E. coli as described above. […] Two forms of val^12 -Ha-Ras protein were prepared as substrates for these enzymes, differing in their carboxy terminal sequence. One form terminated in cysteine-valine-leucine-serine (Ras-CVLS) the other in cystein-valine-leucine-leucine (Ras-CVLL). Ras-CVLS is a substrate for the famesyl protein transferase while Ras-CVLL is a substrate for geranylgeranyl protein transferase I. The cDNAs encoding these proteins were constructed so that the proteins contain an amino-terminal extension of 6 histidine residues. Both proteins were expressed in Escherichia coli and purified using metal chelate affinity chromatography. The radiolabelled isoprenyl pyrophosphate substrates, [^3 H]farnesyl pyrophosphate and [^3 H]geranylgeranyl pyrophosphate, were purchased from DuPon/New England Nuclear.
Several methods for measuring farnesyl protein transferase activity have been described (Reiss et al 1990, Cell 62: 81; Schaber et al 1990, J. Biol. Chem. 265: 14701; Manne et al 1990, PNAS 87: 7541; and Barbacid & Manne 1993, U.S. Pat. No. 5,185,248). […] The reaction was allowed to proceed for 30 minutes at room temperature and then stopped with 0.5 ml of 4% sodium dodecyl sulfate (SDS) followed by 0.5 ml of cold 30% TCA. Samples were allowed to sit on ice for 45 minutes and precipitated Ras protein was then collected on GF/C filter paper mats using a Brandel cell harvester. Filter mats were washed once with 6% TCA, 2% SDS and radioactivity was measured in a Wallac 1204 Betaplate BS liquid scintillation counter. Percent inhibition was calculated relative to the DMSO vehicle control.
`O=C(O)CCCCCC(=O)N1CCC([C@H]2c3ncc(Br)cc3CCc3cc(Cl)cc(Br)c32)CC1` [Example 58, (+)-SODIUM 4-(3,10-DIBROMO-8-CHLORO-6,11-DIHYDRO-5H-BENZO[5,6]CYCLO-HEPTA[1,2-b]PYRIDIN-11 (R)-YL)-OMEGA-OXO-1-PIPERIDININE HEPTANOATE] showed an IC50 of 9.1 nM.
As to `NC(=O)CCCCCC(=O)N1CCC([C@H]2c3ncc(Br)cc3CCc3cc(Cl)cc(Br)c32)CC1` [Example 59, (+)-4-(3,10-DIBROMO-8-CHLORO-6,11-DIHYDRO-5H-BENZO[5,6]CYCLO-HEPTA[1,2-b]PYRIDIN-11(R)-YL)-OMEGA-OXO-1-PIPERIDININE HEPTANAMIDE], the IC50 is 3.3 nM.
In turn, `CCOC(=O)CC(=O)N1CCC([C@H]2c3ncc(Br)cc3CCc3cc(Cl)cc(Br)c32)CC1` [Example 45, (+)-ETHYL 4-(3,10-DIBROMO-8-CHLORO-6,11-DIHYDRO-5H-BENZO[5,6]CYCLO-HEPTA[1,2-b]PYRIDIN-11(R)-YL)-BETA-OXO-1-PIPERIDININE PROPANOATE] came in with an IC50 of 28 nM.
Same read-out and setting: the result for `NC(=O)CCCCC(=O)N1CCC([C@H]2c3ncc(Br)cc3CCc3cc(Cl)cc(Br)c32)CC1` [Example 56, (+)-4-(3,10-DIBROMO-8-CHLORO-6,11-DIHYDRO-5H-BENZO[5,6]CYCLO-HEPTA[1,2-b]PYRIDIN-11(R)-YL)-EPSILON-OXO-1-PIPERIDININE HEXANAMIDE] reads 7 nM; that for `NC(=O)CC(=O)N1CCC([C@H]2c3ncc(Br)cc3CCc3cc(Cl)cc(Br)c32)CC1` [Example 47, 4-(3,10-DIBROMO-8-CHLORO-6,11-DIHYDRO-5H-BENZO[5,6]CYCLO-HEPTA[1,2-b]PYRIDIN-11(R)-YL)-BETA-OXO -1-PIPERIDININE PROPANAMIDE], 68 nM; that for `CN(C)CCCC(=O)N1CCC(C2c3ncc(Br)cc3CCc3cc(Cl)cc(Cl)c32)CC1` (single isomer, unassigned) [Example 6], 6.5 nM.
`CN(C)CCC(=O)N1CCC(C2c3ncc(Br)cc3CCc3cc(Cl)cc(Cl)c32)CC1` (single isomer, unassigned) [Example 5]: half-maximal inhibition (IC50) required 56 nM.
In the case of `NC(=O)CCC(=O)N1CCC(C2c3ncc(Br)cc3CCc3cc(Cl)cc(Cl)c32)CC1` (single isomer, unassigned) [Example 12], the IC50 stood at 61 nM.
Compound `CC(=O)NCCCC(=O)N1CCC(C2c3ncc(Br)cc3CCc3cc(Cl)cc(Cl)c32)CC1` (single isomer, unassigned) [Example 15] gave an IC50 of 63 nM.
On the same count and under the same terms, the result for `O=C(CCN1CCCCC1)N1CCC(C2c3ncc(Br)cc3CCc3cc(Cl)cc(Cl)c32)CC1` (single isomer, unassigned) [Example 9] reads 6 nM.
For `CCN(CC)CCC(=O)N1CCC(C2c3ncc(Br)cc3CCc3cc(Cl)cc(Cl)c32)CC1` (single isomer, unassigned) [Example 8], the IC50 turned out to be 14 nM.
`CN(C)CCCCC(=O)N1CCC(C2c3ncc(Br)cc3CCc3cc(Cl)cc(Cl)c32)CC1` (single isomer, unassigned) [Example 7] came in with an IC50 of 22 nM.

Still in this test, the particulars now being: @ 0.06 μg/μL.
The compound `O=C(CCCC(=O)N1CCC(C2c3ncc(Br)cc3CCc3cc(Cl)cc(Cl)c32)CC1)Nc1ccccc1` (single isomer, unassigned) [Example 19] yielded an FPT inhibition of 21%.
Consider `O=C(NCCCC(=O)N1CCC(C2c3ncc(Br)cc3CCc3cc(Cl)cc(Cl)c32)CC1)c1ccncc1` (single isomer, unassigned) [Example 24], for which the FPT inhibition was 20%.

Staying with this test, now noted: @ 93.4 nM.
For the compound `O=C(CCCN1C(=O)c2ccncc2C1=O)N1CCC(C2c3ncc(Br)cc3CCc3cc(Cl)cc(Cl)c32)CC1` (stereo not drawn) [Example 33, 4-(8,10-DICHLORO-3-BROMO-6,11-DIHYDRO-5H-BENZO[5,6]CYCLO-HEPTA[1,2-b]PYRIDIN-11-YL)-1-[4-(1,3-DIHYDRO-1,3-DIOXO-2H-PYRROLO-[3,4c]-PYRIDINE-2-YL)-1-OXOBUTYL]PIPERIDINE], the FPT inhibition was determined as 38.7%.
